Data from PubChem BioAssay AID248 (DTP/NCI, 2004).
Values joined by “and” are separate entries in the source; they are usually repeats but may differ in a detail not shown here. Identical values can stand only once. Toxic doses and inconclusive results are not listed.

Tested on: L1210 leukemia ip in BDF1 mice, survival T/C
Assay: NCI In Vivo Anticancer Drug Screen. Data for tumor model L1210 Leukemia (intraperitoneal) in B6D2F1 (BDF1) mice
Settings: endpoint: mean survival time, higher = longer survival
Summary of the method: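 Each compound was tested against a transplantable tumor grown in mice. The endpoint was survival, with treated animals benchmarked against vehicle controls as a simple ratio.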

[1] = dose: 100.0 mg/kg/injection, schedule: Q01DX009 (ip), vehicle: Klucel (hydroxypropylcellulose) (HPC)
[2] = dose: 100.0 mg/kg/injection, schedule: Q04DX003 (ip), vehicle: Klucel (hydroxypropylcellulose) (HPC)
[3] = dose: 200.0 mg/kg/injection, schedule: Q01DX009 (ip), vehicle: Klucel (hydroxypropylcellulose) (HPC)
[4] = dose: 200.0 mg/kg/injection, schedule: Q04DX003 (ip), vehicle: Klucel (hydroxypropylcellulose) (HPC)
[5] = dose: 400.0 mg/kg/injection, schedule: Q01DX009 (ip), vehicle: Klucel (hydroxypropylcellulose) (HPC)
[6] = dose: 400.0 mg/kg/injection, schedule: Q04DX003 (ip), vehicle: Klucel (hydroxypropylcellulose) (HPC)

SMILES: N/C(=N/N=C/c1ccc(N(CCCl)CCCl)cc1)N[N+](=O)[O-]
- T/C (dose: 15.0 mg/kg/injection, schedule: Q01DX Z (ip), vehicle: methylcellulose (MC)): 89 % of control
- T/C (dose: 30.0 mg/kg/injection, schedule: Q01DX Z (ip), vehicle: methylcellulose (MC)): 93 % of control
- T/C (dose: 60.0 mg/kg/injection, schedule: Q01DX Z (ip), vehicle: methylcellulose (MC)): 96 % of control
- T/C (dose: 60.0 mg/kg/injection, schedule: Q01DX Z (oral), vehicle: methylcellulose (MC)): 94 % of control
- T/C (dose: 120.0 mg/kg/injection, schedule: Q01DX Z (ip), vehicle: methylcellulose (MC)): 96 % of control
- T/C (dose: 120.0 mg/kg/injection, schedule: Q01DX Z (oral), vehicle: methylcellulose (MC)): 101 % of control
- T/C (dose: 240.0 mg/kg/injection, schedule: Q01DX Z (ip), vehicle: methylcellulose (MC)): 104 % of control
- T/C (dose: 480.0 mg/kg/injection, schedule: Q01DX Z (ip), vehicle: methylcellulose (MC)): 94 % of control

SMILES: Nc1ncnc(N)c1NC(=O)c1cc(OCc2ccccc2)cc(OCc2ccccc2)c1
- T/C (dose: 100.0 mg/kg/injection, schedule: Q04DX003 (ip), vehicle: DMSO): 94 % of control
- T/C (dose: 200.0 mg/kg/injection, schedule: Q04DX003 (ip), vehicle: DMSO): 102 % of control
- T/C (dose: 400.0 mg/kg/injection, schedule: Q04DX003 (ip), vehicle: DMSO): 86 % of control

SMILES: CC1=C(O)C(=O)C=C2C1=CC=C1[C@@]2(C)CC[C@@]2(C)[C@@H]3C[C@](C)(C(=O)O)CC[C@]3(C)CC[C@]12C
- T/C (dose: 5.0 mg/kg/injection, schedule: Q01DX001 (ip), vehicle: carboxymethylcellulose (CMC)): 95 % of control and 100 % of control
- T/C (dose: 10.0 mg/kg/injection, schedule: Q01DX001 (ip), vehicle: carboxymethylcellulose (CMC)): 97 % of control
- T/C (dose: 20.0 mg/kg/injection, schedule: Q01DX001 (ip), vehicle: carboxymethylcellulose (CMC)): 103 % of control and 89 % of control
- T/C (dose: 40.0 mg/kg/injection, schedule: Q01DX001 (ip), vehicle: carboxymethylcellulose (CMC)): 122 % of control

SMILES: CCOC(=O)NC1=C(N2CC2(C)C)C(=O)C(NC(=O)OCC)=C(N2CC2(C)C)C1=O
- T/C (dose: 0.93 mg/kg/injection, schedule: Q01DX009 (ip), vehicle: saline): 94 % of control and 110 % of control
- T/C (dose: 1.87 mg/kg/injection, schedule: Q01DX009 (ip), vehicle: saline): 100 % of control and 91 % of control
- T/C (dose: 3.75 mg/kg/injection, schedule: Q01DX009 (ip), vehicle: saline): 96 % of control and 102 % of control
- T/C (dose: 7.5 mg/kg/injection, schedule: Q01DX009 (ip), vehicle: saline): 102 % of control and 107 % of control
- T/C (dose: 15.0 mg/kg/injection, schedule: Q01DX009 (ip), vehicle: saline): 96 % of control and 89 % of control
- T/C (dose: 30.0 mg/kg/injection, schedule: Q01DX009 (ip), vehicle: saline): 100 % of control and 102 % of control

SMILES: CC1CC(CN2c3ccccc3Sc3ccccc32)C(C)N1C (configuration not stated)
- T/C (dose: 12.5 mg/kg/injection, schedule: Q04DX003 (ip), vehicle: acetone): 101 % of control
- T/C (dose: 25.0 mg/kg/injection, schedule: Q04DX003 (ip), vehicle: acetone): 120 % of control

SMILES: CC(=O)O[C@H]1CC[C@]2(C)[C@H]3CC[C@]4(C)[C@@H](OC(C)=O)CC[C@H]4[C@@H]3[C@@H](C)[C@]2(O)C1
- T/C (dose: 50.0 mg/kg/injection, schedule: Q01DX001 (sc), vehicle: steriod suspending solution): 102 % of control
- T/C (dose: 100.0 mg/kg/injection, schedule: Q01DX001 (sc), vehicle: steriod suspending solution): 100 % of control
- T/C (dose: 200.0 mg/kg/injection, schedule: Q01DX001 (sc), vehicle: steriod suspending solution): 102 % of control
- T/C (dose: 400.0 mg/kg/injection, schedule: Q01DX001 (sc), vehicle: steriod suspending solution): 105 % of control

SMILES: Cc1ccc(C)c2c1CC(C(=O)O)CC2C (configuration not stated)
- T/C (dose: 100.0 mg/kg/injection, schedule: Q04DX003 (ip), vehicle: saline): 93 % of control
- T/C (dose: 200.0 mg/kg/injection, schedule: Q04DX003 (ip), vehicle: saline): 110 % of control

SMILES: c1ccc2c3c(sc2c1)CNCC3
- T/C (dose: 25.0 mg/kg/injection, schedule: Q01DX009 (ip), vehicle: Klucel (hydroxypropylcellulose) (HPC)): 107 % of control
- T/C (dose: 50.0 mg/kg/injection, schedule: Q01DX009 (ip), vehicle: Klucel (hydroxypropylcellulose) (HPC)): 101 % of control

SMILES: COC1(OC)C2CCC1C1OC12 (configuration not stated)
- T/C (dose: 100.0 mg/kg/injection, schedule: Q04DX002 (ip), vehicle: saline): 107 % of control
- T/C (dose: 200.0 mg/kg/injection, schedule: Q04DX002 (ip), vehicle: saline): 97 % of control
- T/C (dose: 400.0 mg/kg/injection, schedule: Q04DX002 (ip), vehicle: saline): 97 % of control

SMILES: CCC(C)CC=O (configuration not stated)
- T/C (dose: 50.0 mg/kg/injection, schedule: Q01DX001 (ip), vehicle: carboxymethylcellulose (CMC)): 95 % of control
- T/C (dose: 100.0 mg/kg/injection, schedule: Q01DX001 (ip), vehicle: carboxymethylcellulose (CMC)): 98 % of control
- T/C (dose: 200.0 mg/kg/injection, schedule: Q01DX001 (ip), vehicle: carboxymethylcellulose (CMC)): 93 % of control
- T/C (dose: 400.0 mg/kg/injection, schedule: Q01DX001 (ip), vehicle: carboxymethylcellulose (CMC)): 101 % of control

SMILES: CC(=O)OCC1OC(N2C(=O)/C(=C(/C)c3ccccn3)SC2=S)C(OC(C)=O)C(OC(C)=O)C1OC(C)=O (configuration not stated)
- T/C (dose: 25.0 mg/kg/injection, schedule: Q01DX005 (ip), vehicle: other): 92 % of control
- T/C (dose: 50.0 mg/kg/injection, schedule: Q01DX005 (ip), vehicle: other): 97 % of control
- T/C (dose: 100.0 mg/kg/injection, schedule: Q01DX005 (ip), vehicle: other): 94 % of control
- T/C (dose: 200.0 mg/kg/injection, schedule: Q01DX005 (ip), vehicle: other): 96 % of control
- T/C (dose: 400.0 mg/kg/injection, schedule: Q01DX005 (ip), vehicle: other): 96 % of control

SMILES: O=C(O)/C=C/C(=O)Nc1ccccc1
- T/C [1]: 90 % of control
- T/C [2]: 93 % of control
- T/C [3]: 97 % of control
- T/C [4]: 95 % of control
- T/C [5]: 100 % of control
- T/C [6]: 95 % of control

SMILES: C=C(C)C1(CCCC)C(=O)NC(=S)NC1=O
- T/C (dose: 75.0 mg/kg/injection, schedule: Q01DX001 (ip), vehicle: saline): 102 % of control
- T/C (dose: 150.0 mg/kg/injection, schedule: Q01DX001 (ip), vehicle: saline): 95 % of control

SMILES: C(=C\C1SCCCS1)/c1ccccc1
- T/C (dose: 100.0 mg/kg/injection, schedule: Q04DX002 (ip), vehicle: saline with Tween-80): 101 % of control
- T/C (dose: 200.0 mg/kg/injection, schedule: Q04DX002 (ip), vehicle: saline with Tween-80): 114 % of control
- T/C (dose: 400.0 mg/kg/injection, schedule: Q04DX002 (ip), vehicle: saline with Tween-80): 101 % of control

SMILES: COc1ccc2c(c1)C(=O)C1CC3(CCC21)OCCO3 (configuration not stated)
- T/C [1]: 101 % of control
- T/C [2]: 109 % of control
- T/C [3]: 97 % of control
- T/C [4]: 93 % of control
- T/C [5]: 95 % of control
- T/C [6]: 100 % of control

SMILES: Cc1c([N+](=O)[O-])ccc2ccccc12
- T/C (dose: 100.0 mg/kg/injection, schedule: Q01DX001 (ip), vehicle: other): 103 % of control
- T/C [2]: 108 % of control
- T/C (dose: 200.0 mg/kg/injection, schedule: Q01DX001 (ip), vehicle: other): 98 % of control
- T/C [4]: 101 % of control
- T/C (dose: 400.0 mg/kg/injection, schedule: Q01DX001 (ip), vehicle: other): 103 % of control
- T/C [6]: 100 % of control

SMILES: CCCCCCCCCC(=O)N/N=C/c1cccnc1
- T/C (dose: 100.0 mg/kg/injection, schedule: Q01DX009 (ip), vehicle: other): 96 % of control
- T/C (dose: 200.0 mg/kg/injection, schedule: Q01DX009 (ip), vehicle: other): 86 % of control
- T/C (dose: 400.0 mg/kg/injection, schedule: Q01DX009 (ip), vehicle: other): 86 % of control

SMILES: COc1cc2c(cc1OC)C1C(=CCC3c4cc(OC)c(OC)cc4CC[N+]31C)C=C2 (configuration not stated)
- T/C (dose: 6.25 mg/kg/injection, schedule: Q01DX009 (ip), vehicle: saline with Tween-80): 95 % of control
- T/C (dose: 12.5 mg/kg/injection, schedule: Q01DX009 (ip), vehicle: saline with Tween-80): 99 % of control
- T/C (dose: 25.0 mg/kg/injection, schedule: Q01DX009 (ip), vehicle: saline with Tween-80): 102 % of control

SMILES: CS(=O)(=O)Nc1ccc(Nc2c3ccccc3nc3cc(Cl)ccc23)cc1
- T/C (dose: 10.0 mg/kg/injection, schedule: Q01DX009 (sc), vehicle: saline): 118 % of control
- T/C (dose: 20.0 mg/kg/injection, schedule: Q01DX009 (sc), vehicle: saline): 113 % of control
- T/C (dose: 133.0 mg/kg/injection, schedule: Q04DX003 (ip), vehicle: saline with Tween-80): 176 % of control
- T/C (dose: 200.0 mg/kg/injection, schedule: Q04DX003 (ip), vehicle: saline with Tween-80): 103 % of control
- T/C (dose: 300.0 mg/kg/injection, schedule: Q04DX003 (ip), vehicle: saline with Tween-80): 113 % of control
